# What was measured:
# S. aureus T17 = test: Minimum inhibitory concentration (MIC), biphenomycin-resistant S. aureus T17; format: cell-based, Staphylococcus aureus
# Description: (§1) The minimum inhibitory concentration (MIC) is the minimum concentration of an antibiotic with which the growth of a test microbe is inhibited over 18-24 h. The inhibitor concentration can in these cases be determined by standard microbiological methods (see, for example, The National Committee for Clinical Laboratory Standards. Methods for dilution antimicrobial susceptibility tests for bacteria that grow aerobically; approved standard-fifth edition. NCCLS document M7-A5 [ISBN 1-56238-394-9]. NCCLS, 940 West Valley Road, Suite 1400, Wayne, Pa. 19087-1898 USA, 2000). The test substances are thereby initially provided in 1:2 dilution series into 96-well round-bottom microtiter plates (Greiner) double-concentrated in 50 μl of test medium. The aerobically growing test microbes (e.g. staphylococci and enterococci), which are incubated overnight on Columbia blood agar plates (Becton-Dickinson), are, after resuspension in 0.9% NaCl, adjusted to a microbe count of about 5×10^7 microbes/ml and then diluted 1:150 in cation-adjusted MH medium (test medium). 50 μL of this suspension are pipetted onto the test preparations provided in the microtiter plates. The cultures are incubated at 37° C. for 18-24 hours. For microaerophilically growing microbes (e.g. streptococci), 2% lysed horse blood in the final concentration is added to the medium and the cultures are incubated in the presence of 5% CO2. The lowest substance concentration in each case at which no visible bacterial growth occurs any longer is defined as the MIC and is reported in μg/ml.
# (§2) The minimum inhibitory concentration (MIC) is the minimum concentration of an antibiotic with which the growth of a test microbe is inhibited over 18-24 h. The inhibitor concentration can in these cases be determined by standard microbiological methods (see, for example, The National Committee for Clinical Laboratory Standards. Methods for dilution antimicrobial susceptibility tests for bacteria that grow aerobically; approved standard-fifth edition. NCCLS document M7-A5 [ISBN 1-56238-394-9]. NCCLS, 940 West Valley Road, Suite 1400, Wayne, Pa. 19087-1898 USA, 2000). The MIC of the compounds of the invention is determined in the liquid dilution test on the 96-well microtiter plate scale. The bacterial microbes are cultivated in a minimal medium (18.5 mM Na2HPO4, 5.7 mM KH2PO4, 9.3 mM NH4Cl, 2.8 mM MgSO4, 17.1 mM NaCl, 0.033 μg/ml thiamine hydrochloride, 1.2 μg/ml nicotinic acid, 0.003 μg/ml biotin, 1% glucose, 25 μg/ml of each proteinogenic amino acid with the exception of phenylalanine; [H.-P. Kroll; unpublished]) with the addition of 0.4% BH broth (test medium). In the case of Enterococcus faecium L4001, heat-inactivated fetal calf serum (FCS; GibcoBRL, Germany) is added to the test medium in a final concentration of 10%. Overnight cultures of the test microbes are diluted to an OD578 of 0.001 (to 0.01 in the case of enterococci) in fresh test medium, and incubated 1:1 with dilutions of the test substances (1:2 dilution steps) in test medium ([…]). The cultures are incubated at 37° C. for 18-24 hours; enterococci in the presence of 5% CO2.
# (§3) The lowest substance concentration in each case at which no visible bacterial growth occurs any longer is defined as the MIC.
# (§4) The minimum inhibitory concentration (MIC) is the minimum concentration of an antibiotic with which the growth of a test microbe is inhibited over 18-24 h. The inhibitor concentration can in these cases be determined by standard microbiological methods with modified medium in an agar dilution test (see, for example, The National Committee for Clinical Laboratory Standards. Methods for dilution antimicrobial susceptibility tests for bacteria that grow aerobically; approved standard-fifth edition. NCCLS document M7-A5 [ISBN 1-56238-394-9]. NCCLS, 940 West Valley Road, Suite 1400, Wayne, Pa. 19087-1898 USA, 2000). The bacterial microbes are cultivated on 1.5% agar plates which contain 20% defibrinated horse blood. […]
# S. aureus 133 = test: Minimum inhibitory concentration (MIC), S. aureus 133; format: cell-based, Staphylococcus aureus; settings: S. aureus 133
# Description: as §1, §2, §3, §4
# S. aureus RN4220Bi^R = test: MIC against biphenomycin-resistant S. aureus RN4220Bi^R; format: cell-based, Staphylococcus aureus; settings: colony grown on the antibiotic-containing plate
# Description: (§5) The S. aureus Strain RN4220BiR^R is isolated in vitro. For this purpose, 100 μl portions of an S. aureus RN4220 cell suspension (about 1.2×10^8 cfu/ml) are plated out on an antibiotic-free agar plate (18.5 mM Na2HPO4, 5.7 mM KH2PO4, 9.3 mM NH4Cl, 2.8 mM MgSO4, 17.1 mM NaCl, 0.033 μg/ml thiamine hydrochloride, 1.2 μg/ml nicotinic acid, 0.003 μg/ml biotin, 1% glucose, 25 μg/ml of each proteinogenic amino acid with the addition of 0.4% BH broth and 1% agarose) and on an agar plate containing 2 μg/ml biphenomycin B (10×MIC), and incubated at 37° C. overnight. Whereas about 1×10^7 cells grow on the antibiotic-free plate, about 100 colonies grow on the antibiotic-containing plate, corresponding to a resistance rate of 1×10^−5. Some of the colonies grown on the antibiotic-containing plate are tested for the biphenomycin B MIC. One colony with an MIC of >50 μM is selected for further use, and the strain is referred to as RN4220Bi^R.
# S. aureus RN4220 = test: Resistance rate of S. aureus RN4220 on agar containing biphenomycin B; format: cell-based, Staphylococcus aureus; settings: S. aureus RN4220, agar plate containing 2 μg/ml biphenomycin B (10×MIC), 37° C. overnight
# Description: as §5
# E. faecium L4001 = test: Minimum inhibitory concentration (MIC), E. faecium L4001; format: cell-based, Enterococcus faecium; settings: E. faecium L4001; 10% FCS in test medium
# Description: as §2, §3
compound,measurement,setting,value
"NC[C@H](O)C[C@@H]1NC(=O)[C@@H](N)Cc2cc(ccc2O)-c2ccc(O)c(c2)C[C@@H](C(=O)O)NC1=O [Biphenomycin B, biphenomycin B, reference compound]",MIC S. aureus T17,S. aureus T17; biphenomycin-resistant S. aureus T17,>32 μ/ml
same,MIC of selected colony (strain T17),S. aureus T17; colony isolated from kidney of mice treated with biphenomycin B,> 50 µM
same,MIC S. aureus 133,S. aureus 133,<0.03 μ/ml
same,MIC of selected colony (strain RN4220Bi^R),S. aureus RN4220Bi^R,> 50 µM
same,resistance rate,S. aureus RN4220,1×10^−5
same,MIC E. faecium L4001,E. faecium L4001,0.5 μ/ml
